Reference: US12357624B2, “Low dose pridopidine for Parkinson's Disease and other diseases associated with parkinsonism” (PRILENIA NEUROTHERAPEUTICS LTD., priority 2019, dated 2025)
Like-named read-outs stand apart in the source and are kept apart here.

Columns and labels:
[1] = test system: TH-immunoreactive fibers in the lateral striatum; conditions: chronic
Protocol: Mice allocated to immunohistochemistry were perfusion-fixed on the day after the last rug/saline administration (interval of approx. 20 h from the last injection). Animals were deeply anesthetized with sodium pentobarbital (240 mg/kg, i.p.) and transcardially perfused with 0.9% saline solution, followed by ice-cold buffered 4% paraformaldehyde (pH 7.4). […] Coronal sections of 30 (1 m thickness were cut on a sliding microtome and stored at −20° C. in a nonfreezing solution (30% ethylene glycol and 30% glycerol in 0.1 M phosphate buffer).
(§1) Immunohistochemistry and quantitative analyses were performed according to established protocols [Francardo V, Bez F, Wieloch T, Nissbrandt H, Ruscher K, Cenci 33. MA. Neurobiology of Disease. […] Experimental Eye Research. […] (rabbit anti-TH antiserum from Pel-Freez, Rogers, AR, 1:1000) and Cluster of Differentiation 68 (CD68) (rat anti-CD68 antiserum from AbD Serotec, Kidlington, Oxfordshire, UK; 1:1000). Quantitative analyses were performed by an experimentally blinded investigator using the following methods.
Results were expressed as the total number of TH-immunopositive pixels per sample area (averaged across areas). […] The high-magnification analysis of TH fibers on random sample areas was complemented by optical density (O.D.) measurements of TH immunostaining across the entire dorsolateral and ventro-lateral striatum. […]

[2] = test system: B104 neuroblastoma cell line; conditions: 100 nM and 1 μM; vs control untreated cells; cited from earlier work
[3] = test system: STHdhQ7/7 cells expressing Htt96Q-mCherry or Htt20Q-mCherry; conditions: cells without aggregates or cells expressing Htt20Q-mCherry
Text: H2a-GFP was transiently co-expressed with Htt20Q-mCherry or Htt96Q-mCherry (exon 1) in STHdhQ7/7 cells. H2a-GFP aggregation is a marker of cell stress. […] For comparative purposes, 100% represents H2a-GFP relative intensity in untreated cells showing Htt96Q-mCherry aggregates, 0% is H2a-GFP relative intensity in untreated cells without Htt96Q-cherry aggregates.
ER stress levels can be measured using H2a-GFP as protein indicator of early stages of ER stress. H2a-GFP is a misfolded secretory protein which in response to ER stress accumulates. The STHdhQ7/7 is a striatal derived cell line from a knock in transgenic mouse containing homozygous humanized Huntingtin gene (HTT) with 7 polyglutamine repeats (wild type). STHdhQ7/7 cells are transfected with either Htt96Q-mCherry (mutant, mimics the typical pathogenic expression of Htt in HD patients) or Htt20Q-mCherry (normal) constructs. When the polyQ-expanded Htt protein (96Q) exonl fused to fluorescent mCherry protein is expressed, the levels and aggregation of the protein in individual cells can be monitored using a fluorescent microscope.

[4] = biological target: Sigma-1 receptor (S1R) vs dopamine D2/D3Rs (Rattus norvegicus, UniProt Q9R0C9); conditions: rats; behaviorally relevant doses; cited from earlier work
[5] = test system: TH immunostaining, ventrolateral and dorsolateral striatum
Text: Results were expressed as the total number of TH-immunopositive pixels per sample area (averaged across areas). […] The high-magnification analysis of TH fibers on random sample areas was complemented by optical density (O.D.) measurements of TH immunostaining across the entire dorsolateral and ventro-lateral striatum. Although this method is much less sensitive than the actual fiber analysis [Francardo V, Bez F, Wieloch T, Nissbrandt H, Ruscher K, Cenci 33. MA. […] Brain: A Journal of Neurology.
The O.D. analysis was carried out in the same rostrocaudal levels using NIH Image J Software, as described in [Francardo V, Recchia A, Popovic N, Andersson D, Nissbrandt H, Cenci M A. Impact of the lesion procedure on the profiles of motor impairment and molecular responsiveness to L-DOPA in the 6-hydroxydopamine mouse model of Parkinson's disease. Neurobiology of Disease.

wild-type motor neurons = conditions: 0.1 μM, locally applied; cited from earlier work
6-OHDA-lesioned mice = test system: 6-OHDA-lesioned mice
Protocol: The study was performed in male C57B16J mice weighing approx. 25 g and having an age of 8 to 9 weeks at the beginning of the experiments. A total of 65 wild-type mice and 52 S1R knockout (KO) mice were used. S1R knockout mice and wild-type littermates (both genders) were bred on a C57BL6J background. Our S1R KO line is derived from the well-characterized Sigmar1^Gt(OST422756)Lex mouse strain distributed by the Mutant Mouse Resource Regional Centre (MMRRC) The mice were housed under a 12-h light/dark cycle with free access to food and water.
Lesions were performed according to previously described procedures [Francardo V, Bez F, Wieloch T, Nissbrandt H, Ruscher K, Cenci 33. MA. […] Brain: A Journal of Neurology. […] 6-OHDA-HCl (Sigma-Aldrich AB, Stockholm, Sweden) was freshly dissolved in 0.02% ascorbate-saline at the concentration of 3.2 mg free base per milliliter. […] The solution was injected via a glass capillary (tip diameter−50 (1 m) at the rate of 0.5 (1 L/min, and the capillary was left in place for 2 mi after each injection.
The first injection was given immediately upon completion of lesion surgery. […] An impaired capacity to perform adjusting steps during experimenter-imposed movements (stepping test) reflects both akinetic and postural deficits relevant to PD [Blume S R, Cass D K, Tseng K Y. Stepping test in mice: a reliable approach in determining forelimb akinesia in MPTP-induced Parkinson's Disease. Experimental Neurology. […] Experimental Neurology. […] The mouse was placed at the entrance of a custom-made plastic corridor (7 cm wide, 1 m long, flanked by 10-cm-high walls), gently lifted by the tail, and pulled backwards with a fixed speed (1 m/4 s). Each trial was video-recorded, and the footage was used to count the number of adjusting steps performed by each forelimb. Trials in which mice turned their body by 90° towards the walls of the corridor (in an attempt to escape or explore) were discarded. In each session, mice were tested until 3 valid trials per animal were obtained. Results were expressed as the percentage of steps performed by the forelimb contralateral to the lesion (left) over the total number of steps (mean of 3 trials per session).

eIF2α-phosphorylation = conditions: tested 0.03 to 150 μM
Text: The ratio of eIF2a-P to total eIF2a was quantified by immunoblot.

[6] = test system: 6-OHDA-lesioned S1R KO mice; conditions: 0.3 mg/kg, 5 weeks, vs saline
Text: The first injection was given immediately upon completion of lesion surgery. […] Full rotations (continuous turns of 360) were counted off-line by an experimentally blinded investigator. Data are expressed as the total number of net full turns ipsilateral to the lesion per test session.
The number of supporting wall contacts performed independently by the paw contralateral to the lesion was expressed as a percentage of all supporting wall contacts in each session. […]

[7] = test system: CD68-immunopositive microglial cells; conditions: 1 mg/kg
Protocol: as §1
The European Journal of Neuroscience. […] Seminars in Immunopathology.

Chain of Sigma-1 receptor (S1R) vs dopamine D2/D3Rs (Q9R0C9 whole entry): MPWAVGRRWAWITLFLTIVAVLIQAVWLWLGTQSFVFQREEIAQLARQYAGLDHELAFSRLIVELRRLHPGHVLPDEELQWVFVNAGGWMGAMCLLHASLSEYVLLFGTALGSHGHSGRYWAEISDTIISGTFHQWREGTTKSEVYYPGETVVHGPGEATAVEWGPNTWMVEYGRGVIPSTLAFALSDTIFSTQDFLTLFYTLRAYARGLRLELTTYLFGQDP

## CCCN1CCC(c2cccc(S(C)(=O)=O)c2)CC1 [pridopidine, 4-[3-(methylsulfonyl)phenyl]-1-propyl-piperidine]
[1]; 0.3 mg/kg s.c. daily
  TH fiber profiles, increase in median values relative to saline: about 15 fold
[1]; 1.0 mg/kg s.c. daily
  TH fiber profiles vs saline: did not achieve statistical significance
[2]
  BDNF secretion: enhanced BDNF secretion
[3]
  H2a-GFP levels: does not alter H2a-GFP levels
[4]
  receptor occupancy, in vivo PET: occupy the Sigma-1 receptor (S1R) rather than the dopamine D2/D3Rs
[5]; 0.3 mg/kg, dorsolateral striatum
  TH O.D. vs saline: significant, albeit smaller increase
[5]; 0.3 mg/kg, ventrolateral striatum
  TH O.D. above saline control levels: greater than twofold increase
[5]; 1 mg/kg, dorsolateral striatum
  TH O.D. vs saline: only a trend
[5]; 1 mg/kg, ventrolateral striatum
  TH O.D. vs saline: trend towards an increase that did not reach statistical significance
wild-type motor neurons
  mitochondria transport velocity in axons: accelerates mitochondria transport in axons
6-OHDA-lesioned mice; 0.3 mg/kg s.c. daily
  stepping test performance: gradual improvement, diverging significantly from the saline-treated group on weeks 4 and 5
6-OHDA-lesioned mice; 0.3 mg/kg s.c. daily, week 5
  stepping test, improvement above the vehicle (saline): ~94%
6-OHDA-lesioned mice; 1.0 mg/kg s.c. daily, last 2 weeks
  stepping test performance: difference from saline-treated mice did not reach significance
6-OHDA-lesioned mice; 1.0 mg/kg s.c. daily, week 5
  stepping test, difference vs sham: ~49%
6-OHDA-lesioned mice; week 1, pridopidine-treated mice (0.3 or 1.0 mg/kg)
  stepping test, difference vs sham: ~60%
eIF2α-phosphorylation
  effective concentrations for reduction of eIF2α-P: 0.03 to 3 µM
[6]
  spontaneous rotations and forelimb use asymmetry (cylinder test, stepping test): does not improve motor deficits
[7]; SNc
  number of CD68-immunopositive microglial cells: trend towards an effect in the SNc
[7]; ventrolateral striatum
  number of CD68-immunopositive microglial cells: not in the ventrolateral striatum
